Results: patent publication US7101878B1 (Agouron Pharmaceuticals, Inc., priority 1998, dated 2006)
Read-outs that look alike come from different tables or passages of the source.

Molecular target: T1, human GnRH receptor (Homo sapiens, UniProt P30968)
T1 construct: expressed in transfected cells; host or cells: HEK 293 (hGnRH-R/293, from Dr. Stuart Sealfon)
T1 sequence (P30968 1-328): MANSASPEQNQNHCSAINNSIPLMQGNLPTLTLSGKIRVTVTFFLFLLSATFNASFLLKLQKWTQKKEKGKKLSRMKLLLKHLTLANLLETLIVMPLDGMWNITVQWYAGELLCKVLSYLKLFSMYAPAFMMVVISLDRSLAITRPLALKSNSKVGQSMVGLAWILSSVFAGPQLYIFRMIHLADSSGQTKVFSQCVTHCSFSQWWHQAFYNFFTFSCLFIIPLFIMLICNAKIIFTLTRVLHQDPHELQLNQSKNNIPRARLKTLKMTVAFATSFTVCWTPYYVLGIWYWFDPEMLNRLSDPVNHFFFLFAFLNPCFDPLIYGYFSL
Assay: Radioligand binding, 125I-GnRH-A displacement, membranes of HEK 293 cells with human GnRH receptor
Experimental: All compounds were diluted in 1% DMSO (final assay concentration) in binding assay buffer. […] Reactions were terminated by rapid filtration onto 96-well Packard GF/C filters soaked in 0.1% polyethyleneimine. Filters were washed three times with PBS buffer, dried and counted on a Packard Topcount by liquid scintillation counting.
Assay conditions were identical for assessing compound activities at other species. […] IC50 values for control peptides and test compounds were calculated utilizing GraphPad Prism™ software.
Crude compounds were tested using the competitive radioligand binding assay described above.
The reaction mixture was vortexed and incubated for 1 min at room temperature. After one min, the mixture was vortexed and allowed to incubate for an additional minute. 2 ml of 0.5 M acetic acid/1% BSA was added to the reaction tube and the mixture was added to a C18 Sep-Pak cartridge. The cartridge was washed with subsequent washes of 5 ml H2O and 5 ml 0.5M acetic acid and then eluted with 5×1 ml of 60% CH3CN/40% 0.5M acetic acid. The eluate was diluted with 3× volume of HPLC buffer A (0.1% TFA in H2O) and loaded onto a C18 column. The iodinated product was eluted over 20-25 min with a gradient of 25-100% CH3CN containing 0.1% TFA. The radioactive fractions (750 ed/fraction) are collected into clean polypropylene tubes containing 100 μl of 10% BSA. Fractions were assessed for biological activity by radioligand binding.
S%R is the substrate remaining.

[1] = 1 uM, read-out: % Inhib. @ 1 uM hGnRH
[2] = 1 h, repeat of % Inhib. at 1 uM, read-out: Repeats @ 1 uM hGnRH

Row | inhibition at 1 µM [1] [%] | inhibition at 1 µM [2] [%] | Compound
1 | -21 | -26 | Cc1cc2c(cc1Cc1ccc(C(=O)NCC(c3ccccc3)c3ccccc3)o1)C(C)(C)CCC2(C)C
2 | -29 | -31 | Cc1cc2c(cc1Cc1ccc(C(=O)NC3=NN(c4c(Cl)cc(Cl)cc4Cl)C(=O)C3)o1)C(C)(C)CCC2(C)C
3 | -27 | -29 | Cc1cc2c(cc1Cc1ccc(C(=O)Nc3ccccc3C(=O)Nc3cnccn3)o1)C(C)(C)CCC2(C)C
4 | -10 | -8 | Cc1cc2c(cc1Cc1ccc(C(=O)NCCCNCc3ccc(Cl)cc3)o1)C(C)(C)CCC2(C)C
5 | 59 | 66 | CC(=O)C1CCN(C(=O)c2ccc(Cc3cc4c(cc3C)C(C)(C)CCC4(C)C)o2)CC1
6 | -29 | -30 | Cc1cc2c(cc1Cc1ccc(C(=O)Nc3nccc(Nc4cc(C(F)(F)F)cc(C(F)(F)F)c4)n3)o1)C(C)(C)CCC2(C)C
7 | -21 | -23 | Cc1cc2c(cc1Cc1ccc(C(=O)NCc3cccc4c3Cc3ccccc3-4)o1)C(C)(C)CCC2(C)C
8 | -12 | -9 | Cc1cc2c(cc1Cc1ccc(C(=O)NCCCCCC(=O)O)o1)C(C)(C)CCC2(C)C
9 | -34 | -38 | Cc1cc2c(cc1Cc1ccc(C(=O)NCc3cc4c5ccccc5n(Cc5cc(Cl)ccc5Cl)c4cn3)o1)C(C)(C)CCC2(C)C
10 | -14 | -5 | Cc1cc2c(cc1Cc1ccc(C(=O)NCCCCCN3CCOCC3)o1)C(C)(C)CCC2(C)C
11 | 22 | 25 | Cc1cc2c(cc1Cc1ccc(C(=O)N3CCN(c4nccc(NCC5CCCO5)n4)CC3)o1)C(C)(C)CCC2(C)C (stereo not shown)
12 | -17 | -31 | Cc1cc2c(cc1Cc1ccc(C(=O)NCCc3ccc(-c4ccccc4)cc3)o1)C(C)(C)CCC2(C)C
13 | -5 | 0 | Cc1cc2c(cc1Cc1ccc(C(=O)NCCNCCN3CCCC3)o1)C(C)(C)CCC2(C)C
14 | -21 | -5 | Cc1cc2c(cc1Cc1ccc(C(=O)NC3CCCCC3Cc3nccc(NCC4CCCO4)n3)o1)C(C)(C)CCC2(C)C (stereo not shown)
15 | 11 | 13 | Cc1cc2c(cc1Cc1ccc(C(=O)NC3CCCCC3Cc3ccnc(NCC4CCCO4)n3)o1)C(C)(C)CCC2(C)C (stereo not shown)
16 | 84 | 89 | Cc1cc2c(cc1Cc1ccc(C(=O)NCC3CCCC(CNc4cccc(NCC5CCCO5)n4)C3)o1)C(C)(C)CCC2(C)C (stereo not shown)
17 | -6 | -7 | Cc1cc2c(cc1Cc1ccc(C(=O)NCCc3c[nH]c4ccc(OCc5ccccc5)cc34)o1)C(C)(C)CCC2(C)C
18 | 18 | 22 | Cc1cc2c(cc1Cc1ccc(C(=O)NCCNc3cccc(NCC4CCCO4)n3)o1)C(C)(C)CCC2(C)C (stereo not shown)
19 | -12 | 14 | Cc1cc2c(cc1Cc1ccc(C(=O)NC3CCN(Cc4ccccc4)CC3)o1)C(C)(C)CCC2(C)C
20 | -1 | 12 | Cc1cc2c(cc1Cc1ccc(C(=O)NC(CO)C(O)c3ccccc3)o1)C(C)(C)CCC2(C)C (stereo not shown)
21 | -2 | 3 | Cc1cc2c(cc1Cc1ccc(C(=O)N(Cc3ccccc3)Cc3ccccc3)o1)C(C)(C)CCC2(C)C
22 | -7 | 4 | Cc1cc2c(cc1Cc1ccc(C(=O)N(C)Cc3ccccc3)o1)C(C)(C)CCC2(C)C
23 | 16 | 3 | Cc1cc2c(cc1Cc1ccc(C(=O)NC(CO)Cc3ccc(Cl)cc3)o1)C(C)(C)CCC2(C)C (stereo not shown)
24 | 13 | 19 | Cc1cc2c(cc1Cc1ccc(C(=O)NC(Cc3ccccc3)c3ccccc3)o1)C(C)(C)CCC2(C)C (stereo not shown)

Row | inhibition at 1 µM [1] [%] | inhibition at 1 µM [2] [%] | Compound
25 | 17 | 26 | Cc1cc2c(cc1Cc1ccc(C(=O)NC(CO)c3ccccc3)o1)C(C)(C)CCC2(C)C (stereo not shown)
26 | 15 | 26 | Cc1cc2c(cc1Cc1ccc(C(=O)N[C@H](CO)c3ccccc3)o1)C(C)(C)CCC2(C)C
27 | 19 | 25 | Cc1cc2c(cc1Cc1ccc(C(=O)N[C@H](C)[C@@H](O)c3ccccc3)o1)C(C)(C)CCC2(C)C
28 | -7 | 4 | Cc1cc2c(cc1Cc1ccc(C(=O)N(C)[C@@H](C)[C@H](C)c3ccccc3)o1)C(C)(C)CCC2(C)C
29 | -11 | -9 | Cc1cc2c(cc1Cc1ccc(C(=O)N(C)[C@@H](C)[C@@H](O)c3ccccc3)o1)C(C)(C)CCC2(C)C
30 | -10 | -6 | Cc1cc2c(cc1Cc1ccc(C(=O)N(C)[C@H](C)[C@H](O)c3ccccc3)o1)C(C)(C)CCC2(C)C
31 | 20 | 23 | Cc1cc2c(cc1Cc1ccc(C(=O)N(C)[C@H](C)[C@@H](O)c3ccccc3)o1)C(C)(C)CCC2(C)C
32 | -11 | 24 | COc1ccc(C(O)C(CO)NC(=O)c2ccc(Cc3cc4c(cc3C)C(C)(C)CCC4(C)C)o2)cc1 (stereo not shown)
33 | 1 | 41 | Cc1cc2c(cc1Cc1ccc(C(=O)NCc3ccccc3OC(F)(F)F)o1)C(C)(C)CCC2(C)C
34 | -3 | 2 | COc1cccc(OC)c1CNC(=O)c1ccc(Cc2cc3c(cc2C)C(C)(C)CCC3(C)C)o1
35 | -11 | -7 | Cc1cc2c(cc1Cc1ccc(C(=O)N(C)CCc3ccccn3)o1)C(C)(C)CCC2(C)C
36 | -20 | -30 | Cc1cc2c(cc1Cc1ccc(C(=O)N(CCc3ccccc3)Cc3ccccc3O)o1)C(C)(C)CCC2(C)C
37 | 10 | 2 | CCN(Cc1ccncc1)C(=O)c1ccc(Cc2cc3c(cc2C)C(C)(C)CCC3(C)C)o1
38 | -7 | 15 | COc1ccccc1CC(C)N(C)C(=O)c1ccc(Cc2cc3c(cc2C)C(C)(C)CCC3(C)C)o1 (stereo not shown)
39 | -7 | 9 | CCCCN(Cc1ccccc1)C(=O)c1ccc(Cc2cc3c(cc2C)C(C)(C)CCC3(C)C)o1
40 | -10 | -5 | Cc1cc2c(cc1Cc1ccc(C(=O)N(CCO)Cc3ccccc3)o1)C(C)(C)CCC2(C)C
41 | -12 | -9 | Cc1cc2c(cc1Cc1ccc(C(=O)N(CC(O)c3ccccc3)C3CCCCC3)o1)C(C)(C)CCC2(C)C (stereo not shown)
42 | 31 | 42 | COc1ccc(C(NC(=O)c2ccc(Cc3cc4c(cc3C)C(C)(C)CCC4(C)C)o2)c2ccc(OC)cc2)cc1
43 | -23 | -8 | Cc1cc2c(cc1Cc1ccc(C(=O)NCCC(=O)NC(c3ccccc3)c3ccccc3)o1)C(C)(C)CCC2(C)C
44 | 17 | 28 | Cc1cc2c(cc1Cc1ccc(C(=O)NCCCC(=O)NC(c3ccccc3)c3ccccc3)o1)C(C)(C)CCC2(C)C
45 | 51 | 54 | Cc1cc2c(cc1Cc1ccc(C(=O)NCc3ccccc3Sc3ccccc3CO)o1)C(C)(C)CCC2(C)C
46 | 35 | 36 | Cc1cc2c(cc1Cc1ccc(C(=O)NCCCN(CCO)CCO)o1)C(C)(C)CCC2(C)C
47 | -18 | -7 | Cc1cc2c(cc1Cc1ccc(C(=O)N3CCN(c4ccc(Cl)cc4)C(C)C3)o1)C(C)(C)CCC2(C)C (stereo not shown)
